Data as given in patent US20260137697A1, “THIAZOLO[5,4-D]PYRIMIDINE COMPOUNDS, COMPOSITIONS COMPRISING THEM AND USES THEREOF” (University de Montreal, priority 2022, published 2026).
Where two headings read alike, the source gives them in different places.

Experiments:
Type in all cases: cell-based, human
Lovo cells = experiment: Proliferation inhibition, CellTiter-Glo, Lovo; details: Table D-2, Lovo (KRAS-G13D), 3 days, read-out: Prolif. (proliferation EC50)
Protocol: (§1) All cancer cell lines (A375, A101D, A2058, RKO, HT29 SK-MEL 30, IPC298, HepG2, HCT-116, Lovo, SW620, SW480, NCI-H358, NCI-H2122, Calu-6, NCIH2087, NCIH1755, NCIH1666 and Mewo) were obtained from ATCC and cultured in RPM1-1640 medium (Gibco) supplemented with 5% heat inactivated fetal bovine serum (FBS, Wisent) at 37° C. under 5% CO2. Cells were maintained in T175 flasks (Greiner). They were passaged by removing the culture medium, washing once in 10 mL of room temperature Phosphate Buffered Saline (PBS; Wisent) and incubating at 37° C. with 2 mL of 0.05% Trypsin (Thermo-Fisher). Trypsin was then inactivated by adding complete growth medium and the cells were then replated in a T175 culture dish at the appropriate dilution. All cell lines were routinely tested for mycoplasma contamination. Tissue type and mutational status of each cell line can be found in Table B.
(§2) CellTiter-Glo® viability analysis was conducted on cells plated in 100 μL of complete RPMI-1640 growth medium in 96-well flat-bottomed white opaque plates (Greiner or Croning) at a density indicated in Table E (for each CCL, number of cells plated per well of a 96-well plate to perform the CellTiter-Glo® cell viability assay). The cell density in cells/cm^2 would correspond to cell number divided by the area of one well of a 96-well plate (0.32 cm^2). […]
(§3) After 3 days of incubation, the growth media were removed by aspiration and 60 μL of diluted CellTiter-Glo® reagent (10 μL CellTiter-Glo® reagent+50 μL of PBS) was added to each well. […] Luminescence signals were then acquired on a Synergy Neo2 plate reader (Biotek).
(§4) The effect of each compound dilution on the proliferation of cancer cell lines was expressed in % inhibition and calculated as follows. […]
(§5) The ability of each compound to inhibit proliferation was expressed as a EC50 value obtained by plotting the effect values for each data point of a dilution series and fitting the obtained curves using a log(agonist) versus response—variable slope (four parameters) function using GraphPadPrism (V7.0) or Dotmatics Screening Ultra platform.

HT-29 cells = experiment: Proliferation inhibition, CellTiter-Glo, HT-29; details: Table D-1, HT-29 (BRAF V600E), 3 days, read-out: Prolif. (proliferation EC50)
Protocol: as §1, §2, §3, §4, §5

NCI-H2122 cells = experiment: Proliferation inhibition, CellTiter-Glo, NCI-H2122; details: Table D-2, NCI-H2122 (KRAS-G12C), 3 days, read-out: Prolif. (proliferation EC50)
Protocol: as §1, §2, §3, §4, §5

HepG2 cells = experiment: Proliferation inhibition, CellTiter-Glo, HepG2; details: Table D-1, HepG2 (NRAS-Q61L), 3 days, read-out: Prolif. (proliferation EC50)
Protocol: as §1, §2, §3, §4, §5

SMILES | EC50 (Lovo cells; Homo sapiens, 72 h) [nM] | EC50 (HT-29 cells; Homo sapiens, 72 h) [nM] | EC50 (NCI-H2122 cells; Homo sapiens, 72 h) [nM] | EC50 (HepG2 cells; Homo sapiens, 72 h) [nM] | EC50 (Lovo cells) [nM] | EC50 (HT-29 cells) [nM] | EC50 (NCI-H2122 cells) [nM] | EC50 (HepG2 cells) [nM]
Cc1ccc2c(Nc3cccc(Cl)c3F)nccc2c1NC(=O)c1csc2c(N)ncnc12 [Belvarafenib, reference compound] | < 300 | < 300 | 300 to 3000 | < 300 |  |  |  | 
N#CC1(c2cccc3c2ncn3-c2nc3c(Nc4c(F)ccc(NS(=O)(=O)c5cccc(Cl)c5Cl)c4F)ncnc3s2)CC1 [Example 122] |  |  |  |  | < 300 | < 300 | 300 to 3000 | < 300
Cc1c(F)cccc1S(=O)(=O)Nc1ccc(F)c(Nc2ncnc3sc(-n4cc(C(=O)N5C6CCC5CN(C)C6)c5ccccc54)nc23)c1F [Example 44] |  |  |  |  | < 300 | < 300 | < 300 | < 300
